Read-outs that look alike come from different tables or passages of the source.
Key:
[1] = Liver microsomal stability experiment (human); format: in vitro ADME
Experimental: (§1) A 0.1 M solution of dipotassium phosphate in distilled water (containing 1 mM ethylenediaminetetraacetic acid) was taken. Then the pH was adjusted to 7.4 with a 0.1 M solution of potassium dihydrogen phosphate in distilled water (containing 1 mM ethylenediaminetetraacetic acid).
(§2) • Rat: SD Rat Liver Microsomes, Cat. No.: LM-DS-02M, RILD Research Institute for Liver Diseases (Shanghai) Co. Ltd. • Monkey: Cynomolgus Monkey Liver Microsomes, Cat. No.: LM-SXH-02M, RILD Research Institute for Liver Diseases (Shanghai) Co. Ltd. • Human: Pooled Human Liver Microsomes (Mongolian), Cat. No.: LM-R-02M, RILD Research Institute for Liver Diseases (Shanghai) Co. Ltd.
(§3) A 10 mM solution of each of the control compound and test compounds was prepared in DMSO. Then 10 μL of the solution was added to 190 μL of acetonitrile to form a 0.5 mM stock solution. 1.5 μL of the 0.5 mM stock solution was measured out, and […] of 20 mg/mL liver microsomes and 479.75 μL of the buffer were added. (The actual preparation amount can be adjusted according to use).
(§4) 10 mg/mL of reduced coenzyme II (NADPH) was prepared in the buffer. A 96-well plate was placed on ice. Wells corresponding to different time points (0, 10, 30, 60 and 90 min, Non-NADPH) were set for each compound. […] The mixture was analyzed on an AB SCIEX ExionLC-Triple Quad 5500 high-performance liquid chromatograph-mass spectrometer. […]

[2] = PK of single intragastric administration to cynomolgus monkeys (plasma concentration); format: in vivo; conditions: intragastric 3 mpk and 30 mpk, same dose as control compound
Experimental: Cynomolgus monkeys were used. Each group consisted of 3 cynomolgus monkeys, and they were given the control compound at 3 mpk, the control compound at 30 mpk, the compound of formula I at 3 mpk, and the compound of formula I at 30 mpk by intragastric administration. Blood was collected at different time points and used for drug concentration analysis and complement activity detection. The compound concentration in plasma was determined by LC-MS/MS. The complement activity in serum was determined using a wieslab assay (Svar Life Science AB, COMPL AP330 RUO) kit, Normal Human Serum (Complement Technology, NHS).

[3] = Stability tests of compound of formula I and its monohydrochloride, phosphate and maleate (Example 4); format: physicochemical
Experimental: The stability of the compound of formula I, the monohydrochloride of the compound of formula I in Example 1, the phosphate of the compound of formula I in Example 2, and the maleate of the compound of formula I in Example 3 were investigated.
Stability investigation conditions: 40° C./75% RH-closed, 40° C./75% RH-open, and 60° C.-closed; stability investigation content: changes in related substances and crystal forms.
Detection of related substances: about 6-7 mg of a sample was separately weighed out and added to a 10 mL volumetric flask; 50% aqueous acetonitrile solution was added for dissolution; the mixture was diluted to volume; and 10 μL of the sample was injected.

[4] = Liver microsomal stability experiment (rat); format: in vitro ADME; conditions: rat liver microsomes
Experimental: as §1, §2, §3, §4

[5] = Solubility tests of compound of formula I, mixture of crystal forms A and B, and crystal form C at 37° C. (Example 13); format: physicochemical; conditions: 37° C.; for solubility at 1 h / solubility at 24 h: thermodynamic from solid; for solubility at 1 h: read-out: Solubility at 1 h; for solubility at 24 h: read-out: Solubility at 24 h
Experimental: An appropriate amount of a test sample was weighed out and added to a vial; 3 mL of a medium (water, SGF, FaSSIF, FeSSIF, or the like) was added; the mixture was stirred at 37° C.; […]; centrifugation was performed at 12000 rpm for 10 min; the supernatant was diluted with 50% aqueous acetonitrile solution to an appropriate multiple; and the concentration of the supernatant was determined.
Control and linearity: 10 mg of the compound of formula I was weighed out and added to a 50 mL volumetric flask, 50% aqueous acetonitrile solution was added for dissolution, and the mixture was diluted to volume. Two parts were prepared in parallel. The control was taken and diluted with 50% aqueous acetonitrile solution to 100 μg/mL, 50 μg/mL, and 10 μg/mL, 5 μL of the sample was injected, and a standard curve was plotted.

With `COc1cc(C)c2[nH]ccc2c1CN1CC[C@H](OCC2CC2)C[C@H]1c1ccc(C(=O)O)cc1` [Compound of formula I] the “MMS (human) Remaining (T = 90 min)” value ([1]; human liver microsomes, 90 min) was 91.04%, the “Liver microsomal stability (in words)” value ([1]; rat, monkey and human liver microsomes) was “significant liver microsomal stability” and the “Mean plasma concentration (in words, FIG. 21)” value [2] was “significantly higher mean plasma concentration than that of the control compound”. For the same compound, the “Stability (conclusion in words from Table 7)” value ([3]; 40° C./75% RH closed/open and 60° C. closed, 2 wks, listed as compound of formula I) was “stable”, the “Maximum single impurity %” value ([3]; 40° C./75% RH-closed-2 wks) was 0.16% and the Purity % ([3]; 40° C./75% RH-closed-2 wks) was 99.23%. For the same compound, the Total impurity % ([3]; 40° C./75% RH-closed-2 wks) was 0.77%, the “Maximum single impurity %” value ([3]; 40° C./75% RH-open-2 wks) was 0.17% and the Purity % ([3]; 40° C./75% RH-open-2 wks) was 99.24%. For the same compound, the Total impurity % ([3]; 40° C./75% RH-open-2 wks) was 0.76%, the “Maximum single impurity %” value ([3]; 60° C.-closed-2 wks) was 0.33% and the Purity % ([3]; 60° C.-closed-2 wks) was 98.95%. The Total impurity % ([3]; 60° C.-closed-2 wks) was 1.05%, the “Maximum single impurity %” value ([3]; Initial) was 0.10% and the Purity % ([3]; Initial) was 99.28%. The Total impurity % ([3]; Initial) was 0.72%, the “MMS (rat) Remaining (T = 90 min)” value [4] was 89.14% and the “Final pH” value ([5]; FaSSIF) was 6.44. The “Final pH” value ([5]; FessIF) was 5.03, the “Final pH” value ([5]; SGF) was 1.74 and the “Final pH” value ([5]; Water) was 8.73. For the same compound, the solubility at 1 h ([5]; simulated gastric fluid, SGF) was 5510 µg/mL, the solubility at 24 h ([5]; simulated gastric fluid, SGF) was 5480 µg/mL and the solubility at 1 h ([5]; FassIF) was 220 µg/mL. For the same compound, the solubility at 24 h ([5]; FassIF) was 190 µg/mL, the solubility at 1 h ([5]; FessIF) was 370 µg/mL and the solubility at 24 h ([5]; FessIF) was 350 µg/mL. It also gave a solubility at 1 h ([5]; Water) of 370 µg/mL and a solubility at 24 h ([5]; Water) of 310 µg/mL.

— patent US20260151379A1, “SALT TYPE AND CRYSTAL FORM OF COMPLEMENT FACTOR B INHIBITOR, AND PREPARATION METHOD THEREFOR AND APPLICATION THEREOF” (SHANGHAI MEIYUE BIOTECH DEVELOPMENT CO., LTD., priority 2022, published 2026)
